Measured values taken from patent US20140302568A1, “POLYOL OXIDASE” (NATIONAL UNIVERSITY CORPORATION KAGAWA UNIVERSITY, priority 2011, published 2014).

Tests used:
[1] = system: polyol oxidase derived from Penicillium sp. KU-1; test: Substrate specificity of the partially purified polyol oxidase (peroxidase method); format: biochemical; settings: for Relative activity (%): substrate specificity, partially purified enzyme, relative to D-arabitol = 100
Method: As the measurement method for the oxidase activity, a peroxidase method was used. When a D-glucose oxidase is taken as an example, the principle of the peroxidase method is as follows.
In this method, the activity is measured by colorimetric determination of hydrogen peroxide generated by an oxidation reaction. When hydrogen peroxide generated by an oxidation reaction with a substrate is reacted with a peroxidase, an oxidation reaction of ABTS is catalyzed to generate oxidized ABTS. The oxidized ABTS develops a blue color, and therefore, by visual observation or measurement of absorbance at 420 nm, the oxidase activity can be detected. In the measurement of the activity, the crude extract solution obtained by extraction from the wheat bran culture medium was used. Further, as the control, a reaction solution in which water was added in place of the substrate was also prepared in the same manner. After a reaction was allowed to proceed at room temperature, whether or not the color was developed was confirmed by visual observation, and the crude extract solution added to the reaction solution in which the color was developed was determined to have an oxidase activity.
The measurement of the activity of the present enzyme was performed by measuring an increase in absorbance at 420 nm using the same peroxidase method as described above. The enzymatic reaction was initiated by adding D-mannitol, and the absorbance was measured over time for 10 minutes under the reaction conditions of 30° C. using a spectrophotometer U-2010 manufactured by Hitachi Co., Ltd. The reaction was performed by preparing the reaction solution so that the total amount thereof was 1 mL as shown in Table 11. “1 unit” was defined as the amount of the enzyme required to increase the absorbance at 420 nm by 1 for 1 minute.
Among the polyols used in the assay, the activity of the enzyme was high for D-arabitol, erythritol, D-mannitol, and D-sorbitol, which are listed in descending order of activity, and a high activity was not observed for the other polyols.

[2] = system: polyol oxidase of the A strain; test: Screening for oxidase activity, crude extract of A strain (peroxidase method, visual colour development); format: biochemical, Penicillium sp. KU-1 (A strain); settings: substrate 0.5 M, room temperature
Method: (§1) Isolated microbial cells were inoculated into 5 mL of PDB, followed by shaking incubation at 28° C. for 1 week. In a 200-mL Erlenmeyer flask, 6 g of wheat bran and 15 mL of water were added and mixed with each other, and the resulting mixture was sterilized in an autoclave and used as a wheat bran culture medium. To the thus prepared wheat bran culture medium, the liquid-cultured microbial cells were added together with the total amount of the culture solution, and the resulting mixture was incubated at 28° C. After two-week incubation, an extract solution was prepared by a method described below and used for the measurement of the oxidase activity.
(§2) To the wheat bran culture medium in which the microbial cells were grown, 20 mL of a 10 mM potassium phosphate buffer (pH 7.0) was added, and the cells were well immersed therein and left to stand on ice for 1 hour, and then, the mixture was squeezed with a gauze pad. Thereafter, centrifugation was performed at 4° C. and 12,000 rpm for 18 minutes to remove fine particles, and the resulting solution was used as a crude extract solution.
(§3) In primary screening, a sugar mixed solution and an amino acid mixed solution were used in consideration of efficiency. The crude extract solution in which the activity was detected by the primary screening was subjected to secondary screening using the respective substrates individually at 0.5 M, and the substrate was specified.
(§4) As the measurement method for the oxidase activity, a peroxidase method was used. […]
(§5) In this method, the activity is measured by colorimetric determination of hydrogen peroxide generated by an oxidation reaction. […] The oxidized ABTS develops a blue color, and therefore, by visual observation or measurement of absorbance at 420 nm, the oxidase activity can be detected. […] After a reaction was allowed to proceed at room temperature, whether or not the color was developed was confirmed by visual observation, and the crude extract solution added to the reaction solution in which the color was developed was determined to have an oxidase activity.

[3] = system: polyol oxidase of the B strain; test: Screening for oxidase activity, crude extract of B strain (peroxidase method, visual colour development); format: biochemical, B strain (filamentous fungus); settings: substrate 0.5 M, room temperature
Method: as §1, §2, §3, §4, §5

[4] = system: D-glucose oxidase of the C strain; test: Screening for oxidase activity, crude extract of C strain (peroxidase method, visual colour development); format: biochemical, Aspergillus niger (C strain); settings: substrate 0.5 M, room temperature
Method: as §1, with “activity. […]” for “activity.”
In primary screening, a sugar mixed solution and an amino acid mixed solution were used in consideration of efficiency. The crude extract solution in which the activity was detected by the primary screening was subjected to secondary screening using the respective substrates individually at 0.5 M, and the substrate was specified. […]
In this method, the activity is measured by colorimetric determination of hydrogen peroxide generated by an oxidation reaction. […] The oxidized ABTS develops a blue color, and therefore, by visual observation or measurement of absorbance at 420 nm, the oxidase activity can be detected. […]

Row | SMILES | activity of the enzyme for the polyol (in words) [1] | Relative activity (%) [1] [%] | reactivity as a substrate of the oxidase of the A strain [2] | reactivity as a substrate of the enzyme of the B strain [3] | reactivity as a substrate of the D-glucose oxidase of the C strain [4]
1 | OC[C@@H](O)[C@@H](O)[C@@H](O)[C@@H](O)CO [Allitol] | low | 0.45 | does not show reactivity | uses all of D-sorbitol, D-mannitol, and allitol as a substrate | 
2 | OC[C@@H](O)C(O)[C@H](O)CO [D-arabitol] | high | 100 |  |  | 
3 | O=C[C@H](O)[C@@H](O)[C@H](O)[C@H](O)CO [D-glucose] |  |  |  |  | high substrate specificity for D-glucose
4 | OC[C@@H](O)[C@@H](O)[C@H](O)[C@H](O)CO [D-mannitol] | high | 79.0 | uses D-sorbitol and D-mannitol as a substrate | uses all of D-sorbitol, D-mannitol, and allitol as a substrate | 
5 | OC[C@@H](O)[C@@H](O)[C@H](O)[C@@H](O)CO [D-sorbitol] | high | 36.7 | uses D-sorbitol and D-mannitol as a substrate | uses all of D-sorbitol, D-mannitol, and allitol as a substrate | 
6 | OC[C@@H](O)[C@H](O)[C@H](O)[C@H](O)CO [D-talitol] | low | 0.3 |  |  | 
7 | OC[C@@H](O)[C@@H](O)CO [Erythritol] | high | 80.5 |  |  | 
8 | OCC(O)CO [Glycerol] |  | 0.18 |  |  | 
9 | OC[C@H](O)[C@H](O)[C@H](O)[C@@H](O)CO [L-talitol] |  | 0.3 |  |  | 
10 | OC[C@@H](O)[C@@H](O)[C@@H](O)CO [Ribitol] | low |  |  |  | 
11 | OC[C@@H](O)[C@H](O)[C@@H](O)CO [Xylitol] |  | 1.2 |  |  | 
